In ChEMBL document CHEMBL1143961, “Synthesis and antiplatelet activity of ethyl 4-(1-benzyl-1H-indazol-3-yl)benzoate (YD-3) derivatives” (Bioorg Med Chem, 2008):

Columns and labels:
[1] = tested on: Platelet; test: Inhibition of U46619-induced human platelet aggregation; assay type: functional, cell-based
[2] = tested on: Platelet; test: Inhibition of collagen-induced human platelet aggregation; assay type: functional, cell-based
[3] = tested on: Platelet; test: Inhibition of thrombin-induced human platelet aggregation; assay type: functional, cell-based
[4] = tested on: Platelet; test: Inhibition of SFLLRN-induced human platelet aggregation; assay type: functional, cell-based
[5] = tested on: Platelet; test: Inhibition of GYPGKF-induced human platelet aggregation; assay type: functional, cell-based
[6] = target: T1, Proteinase-activated receptor 4 (Homo sapiens) (UniProt Q96RI0); test: Inhibition of PAR4-mediated GYPGKF-induced ATP release in human platelet assessed per 3*10^8 platelets at 0.1 uM
T1 sequence (whole entry): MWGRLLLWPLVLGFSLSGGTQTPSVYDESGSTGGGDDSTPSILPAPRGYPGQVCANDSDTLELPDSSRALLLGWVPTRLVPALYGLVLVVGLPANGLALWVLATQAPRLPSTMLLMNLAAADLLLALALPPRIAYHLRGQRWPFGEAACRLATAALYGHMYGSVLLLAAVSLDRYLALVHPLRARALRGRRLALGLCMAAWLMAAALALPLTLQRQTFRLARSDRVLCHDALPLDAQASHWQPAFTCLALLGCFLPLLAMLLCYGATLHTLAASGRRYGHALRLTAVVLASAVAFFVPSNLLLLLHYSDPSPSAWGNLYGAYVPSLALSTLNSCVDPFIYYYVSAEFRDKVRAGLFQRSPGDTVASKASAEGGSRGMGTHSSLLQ

[7] = target: T1, Proteinase-activated receptor 4 (Homo sapiens); test: Inhibition of PAR4-mediated GYPGKF-induced P-selectin expression in human platelet at 0.1 uM
[8] = target: T1, Proteinase-activated receptor 4 (Homo sapiens); test: Inhibition of PAR4-mediated GYPGKF-induced P-selectin expression in human platelet at 0.05 uM
[9] = tested on: Platelet; test: Inhibition of arachidonic acid-stimulated thromboxane B2 formation in human platelet assessed per 3*10^8 platelets at 5 uM; assay type: functional
[10] = target: T1, Proteinase-activated receptor 4 (Homo sapiens); test: Inhibition of PAR4-mediated GYPGKF-induced ATP release in human platelet assessed per 3*10^8 platelets at 0.2 uM
[11] = target: T1, Proteinase-activated receptor 4 (Homo sapiens); test: Inhibition of PAR4-mediated GYPGKF-induced ATP release in human platelet assessed per 3*10^8 platelets at 1 uM
[12] = target: T1, Proteinase-activated receptor 4 (Homo sapiens); test: Inhibition of PAR4-mediated GYPGKF-induced P-selectin expression in human platelet at 1 uM
[13] = target: T1, Proteinase-activated receptor 4 (Homo sapiens); test: Inhibition of PAR4-mediated GYPGKF-induced ATP release in human platelet assessed per 3*10^8 platelets at 5 uM
[14] = target: T1, Proteinase-activated receptor 4 (Homo sapiens); test: Inhibition of PAR4-mediated GYPGKF-induced P-selectin expression in human platelet at 5 uM
[15] = tested on: Platelet; test: Inhibition of arachidonic acid-stimulated thromboxane B2 formation in human platelet at 5 uM; assay type: functional

Structure (SMILES) | IC50 [1] [µM] | IC50 [2] [µM] | IC50 [3] [µM] | IC50 [4] [µM] | IC50 [5] [µM] | Activity [6] [ng] | inhibition [7] [%] | inhibition [8] [%] | Activity [10] [ng] | Activity [11] [ng] | inhibition [12] [%] | Activity [13] [ng] | inhibition [14] [%] | Activity [9] [ng] | inhibition at 5 µM [15] [%]
CCOC(=O)c1ccc(-c2nn(Cc3cccc(Cl)c3)c3ccccc23)cc1 | > 10 | > 10 | > 10 | > 10 | 0.08 | 58.9 | 5.2 | 39.3 | 8.9 | – | – | – | – | 1368.4 | –
CCOC(=O)c1ccc(-c2nn(Cc3cccc(OC)c3)c3ccccc23)cc1 | > 10 | > 10 | > 10 | > 10 | 0.26 | – | – | – | – | – | – | – | – | – | –
CCOC(=O)c1ccc(-c2c3ccccc3nn2Cc2ccccc2)cc1 | > 10 | > 10 | > 10 | > 10 | > 10 | – | – | – | – | – | – | – | – | – | –
CC(C)NC(=O)c1ccc(-c2nn(Cc3ccccc3)c3ccccc23)cc1 | > 10 | > 10 | > 10 | > 10 | > 10 | – | – | – | – | – | – | – | – | – | –
CCOC(=O)c1ccc(-c2nn(Cc3cccc(F)c3)c3ccccc23)cc1 | > 10 | > 10 | > 10 | > 10 | 0.27 | – | – | – | – | – | – | – | – | – | –
CCCn1nc(-c2ccc(C(=O)OCC)cc2)c2ccccc21 | > 10 | > 10 | > 10 | > 10 | 0.49 | – | – | – | – | – | – | – | – | – | –
OCc1ccc(-c2nn(Cc3ccccc3)c3ccccc23)cc1 | > 10 | > 10 | > 10 | > 10 | > 10 | – | – | – | – | – | – | – | – | – | –
CCOC(=O)c1ccc(-c2nn(Cc3ccc(OC)cc3)c3ccccc23)cc1 | > 10 | > 10 | > 10 | > 10 | 0.62 | – | – | – | – | – | – | – | – | – | –
CCOC(=O)c1ccc(-c2nn(C(C)C)c3ccccc23)cc1 | > 10 | > 10 | > 10 | > 10 | 0.65 | – | – | – | – | – | – | – | – | – | –
CCOC(=O)c1ccc(-c2nn(Cc3ccccc3OC)c3ccccc23)cc1 | > 10 | > 10 | > 10 | > 10 | 0.47 | – | – | – | – | – | – | – | – | – | –
CNC(=O)c1ccc(-c2nn(Cc3ccccc3)c3ccccc23)cc1 | > 10 | > 10 | > 10 | > 10 | > 10 | – | – | – | – | – | – | – | – | – | –
CCCOC(=O)c1ccc(-c2nn(Cc3ccccc3)c3ccccc23)cc1 | > 10 | > 10 | > 10 | > 10 | > 10 | – | – | – | – | – | – | – | – | – | –
CCOC(=O)c1ccc(-c2nn(Cc3ccccc3F)c3ccccc23)cc1 | > 10 | > 10 | > 10 | > 10 | 0.11 | – | – | – | – | – | – | – | – | – | –
CCNC(=O)c1ccc(-c2nn(Cc3ccccc3)c3ccccc23)cc1 | > 10 | > 10 | > 10 | > 10 | 5.64 | – | – | – | – | – | – | – | – | – | –
CCOC(=O)c1ccc(-c2nn(Cc3ccccc3Cl)c3ccccc23)cc1 | > 10 | > 10 | > 10 | > 10 | 0.23 | – | – | – | – | – | – | – | – | – | –
CCOC(=O)c1ccc(-c2nn(C)c3ccccc23)cc1 | > 10 | > 10 | > 10 | > 10 | 0.27 | – | – | – | – | – | – | – | – | – | –
CC(C)OC(=O)c1ccc(-c2nn(Cc3ccccc3)c3ccccc23)cc1 | > 10 | > 10 | > 10 | > 10 | > 10 | – | – | – | – | – | – | – | – | – | –
CCOC(=O)c1ccc(-c2nn(Cc3ccc(F)cc3)c3ccccc23)cc1 | > 10 | > 10 | > 10 | > 10 | 0.19 | – | – | – | – | – | – | – | – | – | –
CCOC(=O)c1ccc(-c2nn(-c3ccccc3)c3ccccc23)cc1 | > 10 | 4.81 | > 10 | > 10 | 2.64 | – | – | – | – | – | – | 1.8 | 1.6 | 24.4 | 98.5
CCOC(=O)c1ccc(-c2nn(Cc3ccc(Cl)cc3)c3ccccc23)cc1 | > 10 | > 10 | > 10 | > 10 | 0.12 | – | – | – | – | – | – | – | – | – | –

Now from value to molecule, other results behind:

IC50 [1] [µM] | IC50 [2] [µM] | IC50 [3] [µM] | IC50 [4] [µM] | IC50 [5] [µM] | Activity [6] [ng] | inhibition [7] [%] | inhibition [8] [%] | Activity [10] [ng] | Activity [11] [ng] | inhibition [12] [%] | Activity [13] [ng] | inhibition [14] [%] | Structure (SMILES) | Activity [9] [ng] | inhibition at 5 µM [15] [%]
> 10 | 9.56 | > 10 | > 10 | > 10 | – | – | – | – | – | – | – | – | CCCNC(=O)c1ccc(-c2nn(Cc3ccccc3)c3ccccc23)cc1 | – | –
> 10 | > 10 | > 10 | > 10 | > 10 | – | – | – | – | – | – | – | – | CCOC(=O)/C=C/c1ccc(-c2nn(Cc3ccccc3)c3ccccc23)cc1 | – | –
> 10 | > 10 | > 10 | > 10 | 0.58 | – | – | – | – | – | – | – | – | CCOC(=O)c1ccc(-c2nn(Cc3ccoc3)c3ccccc23)cc1 | – | –
> 10 | > 10 | > 10 | > 10 | 0.34 | – | – | – | – | – | – | – | – | CCOC(=O)c1ccc(-c2nn(Cc3ccco3)c3ccccc23)cc1 | – | –
> 10 | > 10 | > 10 | > 10 | 0.13 | 74.4 | 7.7 | 67.2 | 12.7 | – | – | – | – | CCOC(=O)c1ccc(-c2nn(Cc3ccccc3)c3ccccc23)cc1 | 1408.3 | –
> 10 | > 10 | > 10 | > 10 | > 10 | – | – | – | – | – | – | – | – | CCOC(=O)c1cccc(-c2nn(Cc3ccccc3)c3ccccc23)c1 | – | –
> 10 | > 10 | > 10 | > 10 | 0.67 | – | – | – | – | – | – | – | – | CCCCn1nc(-c2ccc(C(=O)OCC)cc2)c2ccccc21 | – | –
> 10 | > 10 | > 10 | > 10 | 5.63 | – | – | – | – | – | – | – | – | CCOC(=O)c1ccc(-c2nn(Cc3ccncc3)c3ccccc23)cc1 | – | –
> 10 | > 10 | > 10 | > 10 | > 10 | – | – | – | – | – | – | – | – | O=C(O)c1ccc(-c2nn(Cc3ccccc3)c3ccccc23)cc1 | – | –
> 10 | > 10 | > 10 | > 10 | 0.36 | – | – | – | – | – | – | – | – | CCOC(=O)c1ccc(-c2nn(CC)c3ccccc23)cc1 | – | –
> 10 | > 10 | > 10 | > 10 | 5.55 | – | – | – | – | – | – | – | – | CCOC(=O)c1ccc(-c2nn(Cc3cccnc3)c3ccccc23)cc1 | – | –
> 10 | > 10 | > 10 | > 10 | > 10 | – | – | – | – | – | – | – | – | NC(=O)c1ccc(-c2nn(Cc3ccccc3)c3ccccc23)cc1 | – | –
> 10 | > 10 | > 10 | > 10 | 0.29 | – | – | – | – | 3.7 | 1.2 | – | – | CCOC(=O)c1ccc(-c2nn(Cc3ccccn3)c3ccccc23)cc1 | 1013.7 | –
> 10 | > 10 | > 10 | > 10 | > 10 | – | – | – | – | – | – | – | – | CO/N=C\c1ccc(-c2nn(Cc3ccccc3)c3ccccc23)cc1 | – | –
> 10 | > 10 | > 10 | > 10 | 0.56 | – | – | – | – | – | – | – | – | COC(=O)c1ccc(-c2nn(Cc3ccccc3)c3ccccc23)cc1 | – | –
